For data set [1], the system named is U-87 MG. In words: Induction of apoptosis in human U87 cells assessed as necrotic cells at 20 uM incubated for 48 hrs in presence of 4-(4-(3-(4-chloro-3-(trifluoromethyl)phenyl)ureido)phenoxy)-N-(prop-2-yn-1-yl)picolinamide by Annexin V-FLTC/PI staining based flow cytometry (reference value: 0.60 %). In kind it is functional, U-87MG ATCC. In general terms: A flow cytometer gives signals particle by particle.

The subject of data set [2] is HEK293. In words: Cytotoxicity against HEK293 cells at low concentration incubated for 48 hrs in presence of 4-(4-(3-(4-chloro-3-(trifluoromethyl)phenyl)ureido)phenoxy)-N-(prop-2-yn-1-yl)picolinamide by MTT assay. In kind it is toxicity, cell-based. To be noted: human, hek293, 48 h. For orientation: Tetrazolium dyes change colour on reduction, which living cells bring about.

Data set [3] concerns U-87 MG. In words: Induction of apoptosis in human U87 cells assessed as viable cells at 5 uM incubated for 48 hrs in presence of 4-(4-(3-(4-chloro-3-(trifluoromethyl)phenyl)ureido)phenoxy)-N-(prop-2-yn-1-yl)picolinamide by Annexin V-FLTC/PI staining based flow cytometry (reference value: 86.74 %). The class given is functional, U-87MG ATCC. To be noted: read-out: Activity.

Data set [4] deals with A549. Put plainly: Antiproliferative activity against human A549 cells incubated for 48 hrs by MTT assay. In kind it is functional, cell-based. To be noted: A549, 48 h.
The target in data set [5] is Serine/threonine-protein kinase B-raf (Homo sapiens) (UniProt P15056). Put plainly: Induction of BRAF degradation in human U87 cells at 10 uM incubated for 48 hrs in presence of 4-(4-(3-(4-chloro-3-(trifluoromethyl)phenyl)ureido)phenoxy)-N-(prop-2-yn-1-yl)picolinamide by Western blot analysis. The class given is cell-based.
Data set [6] concerns the target Platelet-derived growth factor receptor beta (Homo sapiens) (UniProt P09619). In words: Induction of PDGFR-beta degradation in human U87 cells at 10 uM incubated for 48 hrs by Western blot analysis. The class given is cell-based.
In data set [7] the test system is U-87 MG. Put plainly: Induction of apoptosis in human U87 cells assessed as late apoptotic cells at 0.1 uM incubated for 48 hrs in presence of 4-(4-(3-(4-chloro-3-(trifluoromethyl)phenyl)ureido)phenoxy)-N-(prop-2-yn-1-yl)picolinamide by Annexin V-FLTC/PI staining based flow cytometry (reference value: 3.71 %). In kind it is functional, U-87MG ATCC.
Data set [8] concerns U-87 MG. Put plainly: Induction of apoptosis in human U87 cells assessed as necrotic cells at 10 uM incubated for 48 hrs in presence of 4-(4-(3-(4-chloro-3-(trifluoromethyl)phenyl)ureido)phenoxy)-N-(prop-2-yn-1-yl)picolinamide by Annexin V-FLTC/PI staining based flow cytometry (reference value: 0.60 %). In kind it is functional, U-87MG ATCC.
In data set [9] the test system is HEK293. In words: Cytotoxicity against HEK293 cells incubated for 48 hrs by MTT assay. Particulars: human, hek293, 48 h. The class given is toxicity, cell-based.
Data set [10] addresses Vascular endothelial growth factor receptor 2 (Homo sapiens) (UniProt P35968). In words: Induction of VEGFR2 degradation in human U87 cells at 10 uM incubated for 48 hrs in presence of 4-(4-(3-(4-chloro-3-(trifluoromethyl)phenyl)ureido)phenoxy)-N-(prop-2-yn-1-yl)picolinamide by Western blot analysis. In kind it is cell-based. On the technique in general: In western blotting, separated proteins are transferred to a membrane and probed.

Data set [11] relates to U-87 MG. In words: Induction of apoptosis in human U87 cells assessed as viable cells at 0.1 uM incubated for 48 hrs in presence of 4-(4-(3-(4-chloro-3-(trifluoromethyl)phenyl)ureido)phenoxy)-N-(prop-2-yn-1-yl)picolinamide by Annexin V-FLTC/PI staining based flow cytometry (reference value: 86.74 %). In kind it is functional, U-87MG ATCC. Particulars: read-out: Activity.

The test system of data set [12] is U-87 MG. Put plainly: Antiproliferative activity against human U87 cells incubated for 48 hrs by MTT assay. In kind it is functional, cell-based, U-87MG ATCC.
The subject of data set [13] is U-87 MG. Put plainly: Induction of apoptosis in human U87 cells assessed as late apoptotic cells at 1 uM incubated for 48 hrs in presence of (2S,4R)-1-((S)-2-(5-azidopentanamido)-3,3-dimethylbutanoyl)-4-hydroxy-N-(4-(4-methylthiazol-5-yl)benzyl)pyrrolidine-2-carboxamide by Annexin V-FLTC/PI staining based flow cytometry (reference value: 3.71 %). In kind it is functional, U-87MG ATCC.

The subject of data set [14] is U-87 MG. Put plainly: Induction of apoptosis in human U87 cells assessed as necrotic cells at 5 uM incubated for 48 hrs in presence of (2S,4R)-1-((S)-2-(5-azidopentanamido)-3,3-dimethylbutanoyl)-4-hydroxy-N-(4-(4-methylthiazol-5-yl)benzyl)pyrrolidine-2-carboxamide by Annexin V-FLTC/PI staining based flow cytometry (reference value: 0.60 %). In kind it is functional, U-87MG ATCC.

Data set [15] deals with HEK293. In words: Cytotoxicity against HEK293 cells at low concentration incubated for 48 hrs in presence of (2S,4R)-1-((S)-2-(5-azidopentanamido)-3,3-dimethylbutanoyl)-4-hydroxy-N-(4-(4-methylthiazol-5-yl)benzyl)pyrrolidine-2-carboxamide by MTT assay. To be noted: human, hek293, 48 h. The class given is toxicity, cell-based.
The subject of data set [16] is U-87 MG. In words: Induction of apoptosis in human U87 cells assessed as viable cells at 20 uM incubated for 48 hrs in presence of (2S,4R)-1-((S)-2-(5-azidopentanamido)-3,3-dimethylbutanoyl)-4-hydroxy-N-(4-(4-methylthiazol-5-yl)benzyl)pyrrolidine-2-carboxamide by Annexin V-FLTC/PI staining based flow cytometry (reference value: 86.74 %). The class given is functional, U-87MG ATCC. Particulars: read-out: Activity.

Data set [17] has as its target Serine/threonine-protein kinase B-raf (Homo sapiens) (UniProt P15056). In words: Induction of BRAF degradation in human U87 cells at 10 uM incubated for 48 hrs in presence of 4-azido-N-(2-(2,6-dioxopiperidin-3-yl)-1,3-dioxoisoindolin-4-yl)butanamide by Western blot analysis. In kind it is cell-based.
The subject of data set [18] is U-87 MG. In words: Induction of apoptosis in human U87 cells assessed as necrotic cells at 0.1 uM incubated for 48 hrs in presence of (2S,4R)-1-((S)-2-(5-azidopentanamido)-3,3-dimethylbutanoyl)-4-hydroxy-N-(4-(4-methylthiazol-5-yl)benzyl)pyrrolidine-2-carboxamide by Annexin V-FLTC/PI staining based flow cytometry (reference value: 0.60 %). The class given is functional, U-87MG ATCC.

The subject of data set [19] is U-87 MG. Put plainly: Induction of apoptosis in human U87 cells assessed as late apoptotic cells at 0.1 uM incubated for 48 hrs in presence of (2S,4R)-1-((S)-2-(5-azidopentanamido)-3,3-dimethylbutanoyl)-4-hydroxy-N-(4-(4-methylthiazol-5-yl)benzyl)pyrrolidine-2-carboxamide by Annexin V-FLTC/PI staining based flow cytometry (reference value: 3.71 %). In kind it is functional, U-87MG ATCC.

Data set [20] has as its system U-87 MG. Put plainly: Induction of apoptosis in human U87 cells assessed as early apoptotic cells at 10 uM incubated for 48 hrs in presence of (2S,4R)-1-((S)-2-(5-azidopentanamido)-3,3-dimethylbutanoyl)-4-hydroxy-N-(4-(4-methylthiazol-5-yl)benzyl)pyrrolidine-2-carboxamide by Annexin V-FLTC/PI staining based flow cytometry (reference value: 8.95 %). The class given is functional, U-87MG ATCC.

For data set [21], the system named is U-87 MG. In words: Induction of apoptosis in human U87 cells assessed as necrotic cells at 1 uM incubated for 48 hrs in presence of (2S,4R)-1-((S)-2-(5-azidopentanamido)-3,3-dimethylbutanoyl)-4-hydroxy-N-(4-(4-methylthiazol-5-yl)benzyl)pyrrolidine-2-carboxamide by Annexin V-FLTC/PI staining based flow cytometry (reference value: 0.60 %). The class given is functional, U-87MG ATCC.

Data set [22] concerns A549. Put plainly: Antiproliferative activity against human A549 cells incubated for 48 hrs in presence of 4-azido-N-(2-(2,6-dioxopiperidin-3-yl)-1,3-dioxoisoindolin-4-yl)butanamide by MTT assay. In kind it is functional, cell-based. Particulars: A549, 48 h.
The test system of data set [23] is U-87 MG. In words: Antiproliferative activity against human U87 cells incubated for 48 hrs in presence of 4-azido-N-(2-(2,6-dioxopiperidin-3-yl)-1,3-dioxoisoindolin-4-yl)butanamide by MTT assay. The class given is functional, cell-based, U-87MG ATCC.
Data set [24] concerns U-87 MG. In words: Induction of apoptosis in human U87 cells assessed as early apoptotic cells at 0.1 uM incubated for 48 hrs in presence of (2S,4R)-1-((S)-2-(5-azidopentanamido)-3,3-dimethylbutanoyl)-4-hydroxy-N-(4-(4-methylthiazol-5-yl)benzyl)pyrrolidine-2-carboxamide by Annexin V-FLTC/PI staining based flow cytometry (reference value: 8.95 %). The class given is functional, U-87MG ATCC.

The structures appear in SMILES notation. Activity calls are given as the source filed them. The calls are words filed in the database; no cut-off is given here. Some results are limits rather than exact numbers.

The term IC50 denotes the midpoint of a concentration-inhibition curve.

Serine/threonine-protein kinase B-raf (Homo sapiens), sequence (P15056 whole entry): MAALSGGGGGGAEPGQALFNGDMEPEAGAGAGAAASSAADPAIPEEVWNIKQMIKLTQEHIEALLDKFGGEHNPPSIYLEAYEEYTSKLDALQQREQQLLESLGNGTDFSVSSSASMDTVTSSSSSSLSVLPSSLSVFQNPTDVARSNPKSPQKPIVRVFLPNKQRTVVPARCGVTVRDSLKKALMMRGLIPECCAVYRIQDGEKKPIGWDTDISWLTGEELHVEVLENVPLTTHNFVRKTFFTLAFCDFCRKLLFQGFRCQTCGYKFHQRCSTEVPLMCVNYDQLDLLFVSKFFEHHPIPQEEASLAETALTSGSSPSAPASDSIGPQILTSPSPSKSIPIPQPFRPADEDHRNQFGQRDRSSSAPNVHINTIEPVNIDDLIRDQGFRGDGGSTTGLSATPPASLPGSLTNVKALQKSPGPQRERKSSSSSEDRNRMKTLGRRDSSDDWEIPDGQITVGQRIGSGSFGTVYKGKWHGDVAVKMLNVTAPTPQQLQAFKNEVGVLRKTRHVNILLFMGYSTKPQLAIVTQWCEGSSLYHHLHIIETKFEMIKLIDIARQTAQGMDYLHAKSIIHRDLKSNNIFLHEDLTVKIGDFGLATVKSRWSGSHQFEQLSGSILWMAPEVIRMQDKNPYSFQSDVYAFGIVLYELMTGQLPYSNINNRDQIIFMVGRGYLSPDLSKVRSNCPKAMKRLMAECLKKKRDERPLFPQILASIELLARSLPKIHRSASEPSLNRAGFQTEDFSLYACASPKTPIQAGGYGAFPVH
Vascular endothelial growth factor receptor 2 (Homo sapiens), sequence (P35968 whole entry): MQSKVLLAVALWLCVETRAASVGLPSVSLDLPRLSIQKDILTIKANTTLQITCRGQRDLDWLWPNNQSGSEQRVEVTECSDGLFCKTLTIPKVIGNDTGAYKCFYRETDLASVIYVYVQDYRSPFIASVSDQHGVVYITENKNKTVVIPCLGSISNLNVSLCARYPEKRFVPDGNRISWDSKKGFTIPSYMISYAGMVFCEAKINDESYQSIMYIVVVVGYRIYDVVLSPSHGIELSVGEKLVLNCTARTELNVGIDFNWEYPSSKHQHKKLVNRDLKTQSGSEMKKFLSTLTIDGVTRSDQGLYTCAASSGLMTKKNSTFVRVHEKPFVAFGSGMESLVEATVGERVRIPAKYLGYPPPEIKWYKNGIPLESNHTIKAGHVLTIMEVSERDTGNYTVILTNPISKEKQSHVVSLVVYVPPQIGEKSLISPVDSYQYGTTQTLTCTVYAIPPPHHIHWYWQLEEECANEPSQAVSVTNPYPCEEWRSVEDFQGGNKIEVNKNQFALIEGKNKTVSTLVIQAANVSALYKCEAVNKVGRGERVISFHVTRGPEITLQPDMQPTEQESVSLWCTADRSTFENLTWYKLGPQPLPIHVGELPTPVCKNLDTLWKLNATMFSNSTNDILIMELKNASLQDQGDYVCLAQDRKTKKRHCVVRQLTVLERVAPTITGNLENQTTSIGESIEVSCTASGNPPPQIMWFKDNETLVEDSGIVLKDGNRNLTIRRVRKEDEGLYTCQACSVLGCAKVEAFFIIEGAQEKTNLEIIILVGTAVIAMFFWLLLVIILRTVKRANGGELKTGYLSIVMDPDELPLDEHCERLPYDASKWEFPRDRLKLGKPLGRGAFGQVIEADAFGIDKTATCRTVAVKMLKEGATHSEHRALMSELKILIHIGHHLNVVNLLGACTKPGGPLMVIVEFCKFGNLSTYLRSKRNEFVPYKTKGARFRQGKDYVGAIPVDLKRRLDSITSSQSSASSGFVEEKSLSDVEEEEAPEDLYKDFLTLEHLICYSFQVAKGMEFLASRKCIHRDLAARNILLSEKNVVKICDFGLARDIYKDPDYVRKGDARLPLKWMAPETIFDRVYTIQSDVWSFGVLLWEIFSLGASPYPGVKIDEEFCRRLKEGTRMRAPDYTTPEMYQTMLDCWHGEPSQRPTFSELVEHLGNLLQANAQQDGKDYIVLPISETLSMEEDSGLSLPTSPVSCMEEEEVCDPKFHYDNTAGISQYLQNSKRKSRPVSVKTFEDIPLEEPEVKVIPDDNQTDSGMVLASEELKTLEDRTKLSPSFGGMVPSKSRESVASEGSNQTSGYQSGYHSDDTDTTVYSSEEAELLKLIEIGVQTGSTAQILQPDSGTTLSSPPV
Platelet-derived growth factor receptor beta (Homo sapiens), sequence (P09619 whole entry): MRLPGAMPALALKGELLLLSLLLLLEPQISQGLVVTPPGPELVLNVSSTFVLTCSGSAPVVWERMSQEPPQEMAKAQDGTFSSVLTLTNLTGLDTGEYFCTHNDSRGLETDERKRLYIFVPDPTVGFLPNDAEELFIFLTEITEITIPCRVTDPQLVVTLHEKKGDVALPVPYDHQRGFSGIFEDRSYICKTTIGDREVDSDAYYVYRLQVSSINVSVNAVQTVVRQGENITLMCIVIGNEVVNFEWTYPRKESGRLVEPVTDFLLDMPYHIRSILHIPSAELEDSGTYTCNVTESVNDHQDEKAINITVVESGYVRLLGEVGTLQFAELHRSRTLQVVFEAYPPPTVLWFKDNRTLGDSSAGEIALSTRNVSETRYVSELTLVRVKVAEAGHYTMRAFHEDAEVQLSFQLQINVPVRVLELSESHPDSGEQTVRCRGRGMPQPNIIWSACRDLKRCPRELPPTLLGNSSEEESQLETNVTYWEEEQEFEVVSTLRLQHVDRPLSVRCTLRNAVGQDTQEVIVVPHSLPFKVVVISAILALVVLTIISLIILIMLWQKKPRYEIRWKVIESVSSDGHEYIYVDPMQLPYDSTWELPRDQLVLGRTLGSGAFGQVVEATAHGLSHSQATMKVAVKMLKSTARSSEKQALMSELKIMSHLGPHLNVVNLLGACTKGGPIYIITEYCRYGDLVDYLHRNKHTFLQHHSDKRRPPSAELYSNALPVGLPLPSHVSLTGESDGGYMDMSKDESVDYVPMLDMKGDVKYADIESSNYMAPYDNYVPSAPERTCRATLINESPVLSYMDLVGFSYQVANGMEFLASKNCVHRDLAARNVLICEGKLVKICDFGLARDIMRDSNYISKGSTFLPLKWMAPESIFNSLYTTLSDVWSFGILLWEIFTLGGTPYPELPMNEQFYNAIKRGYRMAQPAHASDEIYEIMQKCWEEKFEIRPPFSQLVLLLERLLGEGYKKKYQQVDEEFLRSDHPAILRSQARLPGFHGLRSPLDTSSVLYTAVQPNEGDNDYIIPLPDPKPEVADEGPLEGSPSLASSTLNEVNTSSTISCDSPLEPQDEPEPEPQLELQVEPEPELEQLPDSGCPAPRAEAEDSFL

For `[N-]=[N+]=NCCCC(=O)Nc1cccc2c1C(=O)N(C1CCC(=O)NC1=O)C2=O` (configuration not stated), the Activity was 6.36% in the data set with U-87 MG [1]; “Non-Toxic” in the data set with HEK293 [2]; 3.35% in the data set on U-87 MG [7]; 25.6% in the data set with U-87 MG [8]; “Non-Toxic” in the data set with HEK293 [9]. Besides, in the data set on U-87 MG [3], the viability at 5 µM amounted to 1.48%. Besides, the IC50 in the data set on A549 [4] was greater than 50000 nM; in the data set with U-87 MG [12], greater than 50 µM. Also, the outcome in data set [5], in data set [6] and in data set [10] was Active. Further, the viability at 0.1 µM with U-87 MG [11] was 85.3%.
Take `C#CCNC(=O)c1cc(Oc2ccc(NC(=O)Nc3ccc(Cl)c(C(F)(F)F)c3)cc2)ccn1`: the Activity in the data set with U-87 MG [13] is on record as 5.43%; in the data set on U-87 MG [14], 25.22%; with HEK293 [15], “Non-Toxic”; with U-87 MG [18] it was 1.02%; in the data set on U-87 MG [19] it was 3.35%; in the data set with U-87 MG [20], 0.08%. The Activity in the data set with U-87 MG [21] is on record as 1.26%; with HEK293 [9] it was “Non-Toxic”; with U-87 MG [24] it was 10.27%. In the data set on U-87 MG [16], the viability at 20 µM was determined as 9.88%. In addition, the IC50 was determined as 2810 nM in the data set with A549 [4], 1160 nM in the data set on A549 [22], 5.68 µM in the data set with U-87 MG [23] and 6.67 µM in the data set with U-87 MG [12]. The result in [17] was Active.

The values above are taken from ChEMBL document CHEMBL5620355, “Discovery of intracellular self-assembly protein degraders driven by tumor-specific activatable bioorthogonal reaction” (Eur J Med Chem, 2023).
